Assay results: patent US5071855A, “Pharmacologically active piperidinylimidazopyridine compounds” (Dompe Farmaceutici SpA, priority 1989, dated 1991)
Counter-ions that a name gives are not always drawn.

What was measured:
[1] = test system: mortality induced by histamine; assay: Effect on the mortality induced by histamine; type: in vivo, male albino guinea pigs (Dunkin-Hartley); conditions: Cavia porcellus, po; guinea pig, p.o., 60 minutes before 1.25 mg/kg i.v. histamine dihydrochloride; 50% inhibition of mortality; read-out: Mortality induced by hystamine ED50 p.o.
Experimental: EFFECT ON THE MORTALITY INDUCED BY HISTAMINE
The method described by Romer D. et al. (Med. Welt. 17,791,1966) was followed and the tests were carried out on male albino guinea pigs (Dunkin-Hartley), weighing 350 to 450 g which were kept in cages with a grid floor, on an empty stomach for 24 hours with water ad libitum. The compounds under examination have been orally administered to the animals, dissolved in 0.5% carboxymethylcellulose, 60 minutes before intravenous administration of 1.25 mg/kg of histamine dihydrochloride in saline solution. In the control animals, treated with carboxymethylcellulose, the intravenous administration of histamine dihydrochloride induced a 100% mortality.
It has been evaluated ED50, which corresponds to the amount of the compound able inhibit to 50% the mortality induced by histamine: estimation of ED50 has been made applying the `probit` method (Finney D. J. "Statistical method in biological assay", pg 512,1957).

[2] = test system: mortality induced by compound 48/80; assay: Mortality inhibition by compound 48/80; type: in vivo, Sprague Dawley Nos male rats; conditions: ip; rat, i.p., 30 minutes before 2 mg/kg i.v. compound 48/80; observed 4 hours
Experimental: MORTALITY INHIBITION BY COMPOUND 48/80
For evaluating the protection of the mortality induced by compound 48/80 administration the method described by C. J. E. Niemegeers et al. (Arch. Int. Pharmacodyn, 234,164,1978) was followed.
Sprague Dawley Nos male rats (Nossan, Correzzana, Milano) weighing 140 to 150 g, divided into groups of 10 animals each, on an empty stomach for 24 hours with water "ad libitum", were kept in cages with a grid floor, and treated intravenously with 2 mg/kg of compound 48/80 (1 ml/rat).
The animals were kept under observation for 4 hours taking note of their mortality. The results were expressed as the number of animals dead with respect to the number of treated animals. Compounds under examination or the carrier were administered 30 minutes before administration of compound 48/80 by intraperitoneal route, dissolved in H2 O (5 ml/kg) or suspended in 0.5% carboxymethylcellulose. The experimental data were submitted to the variance analysis and to subsequent multiple comparisons according to Dunnet (D. J. Finney, in "Statistical Methods in Biological assay", Ed. L. Griffin and Co. Ltd., pag. 152,1957, Edition Ames Iowa, 1971).

[3] = Evaluation of the lethal dose50 (LD50), acute toxicity; conditions: in vivo, ip; mouse, 14 days; probit method
Experimental: EVALUATION OF THE LETHAL DOSE50 (LD50)
Swiss Nos (Nossau, Correzzana, Milano) mice, weighing 18 to 20 g each, on an empty stomach for 18 hours with water "ad libitum" and kept in cages with grid floor, were used. The animals, divided into groups of 10 animals each, (5M+5F) were treated intraperitoneally (10 ml/kg) with the compounds under examination dissolved in water or suspended in 0.5% carboxymethyl-cellulose. The animals were kept in the cages and the mortality occurred within the following 6 hours was noted down. At the expiring of the 6 hours the animals were allowed to eat up to the end of the experimentation which lasted 14 days. During this period all the toxic symptoms and the mortality occuring were noted.
The animals which died during the test period and those which were sacrificed at the end of the same, underwent autopsy for a macroscopic examination of their main organs. The experimental data were statistically compared with the X^2 method and LD50 was extrapolated by the `probit` method.

SMILES	ED50 [1]	ED50 [2]	LD50 at 336 h [3]
CCOCCn1c(C2CCCN(C)C2)nc2cccnc21.O=C(O)/C=C/C(=O)O.O=C(O)/C=C/C(=O)O (stereo not drawn) [Example 5, 3-(2-Ethoxyethyl)-2-(1-methylpiperidin-3-yl)-3H-imidazo [4,5-b] pyridine difumarate]	0.05 mg/kg	0.59 mg/kg	< 100 mg/kg
CC(C)(C)c1ccc(C(O)CCCN2CCC(C(O)(c3ccccc3)c3ccccc3)CC2)cc1 (stereo not drawn) [Terfenadine, reference compound]	–	1.99 mg/kg	–
CN1CCCC(c2nc3cccnc3n2Cc2ccccc2)C1 (stereo not drawn) [Example 8, 3-Benzyl-2-(1-methylpiperidin-3-yl)-3H-imidazo [4,5-b] pyridine]	0.078 mg/kg	–	> 100 mg/kg
CCOCCn1c(C2CCN(C)CC2)nc2cccnc21 [Example 2, 3-(2-Ethoxyethyl)-2-(1-methylpiperidin-4-yl)-3H-imidazo [4,5-b] pyridine 1.5 fumarate]	0.042 mg/kg	0.34 mg/kg	500 mg/kg
